Values quoted from earlier work in patent publication US20080293709A1, “Novel 2-Amino-Heterocycles Useful in the Treatment of Abeta-Related Pathologies” (AstraZeneca AB, priority 2005, published 2008).
Non-standard residues stand in square brackets, D forms with d. Residues, ends and D or L forms follow the SMILES beside them. *: point of attachment. Sta = CC(C)C[C@H](N)[C@@H](O)CC(=O)O; Isovaleryl = CC(C)CC(=O)*

Biological target: BACE (Homo sapiens, UniProt P56817)
Sequence (P56817 46-501): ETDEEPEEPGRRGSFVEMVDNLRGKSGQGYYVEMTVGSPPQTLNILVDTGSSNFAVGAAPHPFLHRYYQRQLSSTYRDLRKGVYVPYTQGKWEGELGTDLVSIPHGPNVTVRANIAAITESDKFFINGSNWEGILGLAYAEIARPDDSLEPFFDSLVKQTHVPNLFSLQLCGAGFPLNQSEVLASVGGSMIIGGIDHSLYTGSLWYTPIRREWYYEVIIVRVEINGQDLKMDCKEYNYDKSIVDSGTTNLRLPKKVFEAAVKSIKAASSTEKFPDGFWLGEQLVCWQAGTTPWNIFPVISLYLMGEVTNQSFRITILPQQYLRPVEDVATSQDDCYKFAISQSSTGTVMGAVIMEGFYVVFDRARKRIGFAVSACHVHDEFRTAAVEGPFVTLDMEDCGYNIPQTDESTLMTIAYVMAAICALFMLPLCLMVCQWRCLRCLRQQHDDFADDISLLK

SMILES: CC(C)CC(=O)N[C@H](C(=O)N[C@H](C(=O)N[C@@H](CC(C)C)[C@@H](O)CC(=O)N[C@@H](C)C(=O)N[C@@H](CC(C)C)[C@@H](O)CC(=O)O)C(C)C)C(C)C [pepstatin] (Isovaleryl-VV[Sta]A[Sta]-OH)
- inhibition of BACE: inhibited weakly
